Test results as given in the supplement of paper PMC10307832.

Assays:
Assay in all cases: relative viability (nuclei count vs DMSO), 5 days (fraction); higher = more cells survive
[1] = compound: CN1C=C(C2=CC=CC=C21)/C=C\3/C4=C(C=CC=N4)NC3=O + CC1(C)CCC(c2ccc(Cl)cc2)=C(CN2CCN(c3ccc(C(=O)NS(=O)(=O)c4ccc(N[C@H](CCN5CCOCC5)CSc5ccccc5)c(S(=O)(=O)C(F)(F)F)c4)cc3)CC2)C1 [Navitoclax] (partner 0.5 µM)
Procedure, shortened: (§1)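 Relative viability is defined as nuclei in treated wells over nuclei in vehicle wells. Duplicate plates were run and medians reported. Lung cancer cell lines in 1536-well plates were dosed by pin tool one day after seeding, with one drug or with a fixed anchor-drug dose plus five library-drug doses (not always all listed) in √10 steps, and nuclei were counted after 5 days.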

[2] = compound: CN1C=C(C2=CC=CC=C21)/C=C\3/C4=C(C=CC=N4)NC3=O + CC(C)C[C@H](NC(=O)[C@H](Cc1ccccc1)NC(=O)c1cnccn1)B(O)O [Bortezomib] (partner 0.002 µM)
Procedure, shortened: as §1

[3] = compound: CN1C=C(C2=CC=CC=C21)/C=C\3/C4=C(C=CC=N4)NC3=O + C[C@]1(O)C[C@@H](c2nc(-c3ccc4ccc(-c5ccccc5)nc4c3)c3c(N)nccn32)C1 [Linsitinib] (partner 1 µM)
Procedure, shortened: as §1

[4] = compound: CC(=O)Nc1cccc(-n2c(=O)n(C3CC3)c(=O)c3c(Nc4ccc(I)cc4F)n(C)c(=O)c(C)c32)c1 [Trametinib] + CC1(C)CCC(c2ccc(Cl)cc2)=C(CN2CCN(c3ccc(C(=O)NS(=O)(=O)c4ccc(N[C@H](CCN5CCOCC5)CSc5ccccc5)c(S(=O)(=O)C(F)(F)F)c4)cc3)CC2)C1 [Navitoclax] (partner 0.5 µM)
Procedure, shortened: as §1

Row | Cell Line | relative viability ([1]; first compound 0.02 µM) | relative viability ([1]; first compound 0.06325 µM) | relative viability ([1]; first compound 0.2 µM) | relative viability ([1]; first compound 0.6325 µM) | relative viability ([1]; first compound 2 µM) | relative viability ([2]; first compound 0.02 µM) | relative viability ([2]; first compound 0.06325 µM) | relative viability ([2]; first compound 0.2 µM) | relative viability ([2]; first compound 0.6325 µM) | relative viability ([2]; first compound 2 µM) | relative viability ([3]; first compound 0.02 µM) | relative viability ([3]; first compound 0.06325 µM) | relative viability ([3]; first compound 0.2 µM) | relative viability ([3]; first compound 0.6325 µM) | relative viability ([3]; first compound 2 µM) | relative viability ([4]; first compound 0.0025 µM) | relative viability ([4]; first compound 0.007906 µM) | relative viability ([4]; first compound 0.025 µM) | relative viability ([4]; first compound 0.07906 µM) | relative viability ([4]; first compound 0.25 µM)
1 | PC-14 | 1.05 | 0.985 | 1.14 | 0.971 | 0.989 | 0.826 | 0.831 | 0.981 | 0.898 | 0.991 | 0.95 | 0.933 | 0.988 | 0.929 | 0.96 | 0.99 | 1.05 | 0.978 | 0.882 | 0.452
2 | HCC-44 | 0.943 | 1.03 | 0.89 | 0.726 | 0.772 | 0.888 | 0.8 | 0.858 | 0.756 | 0.847 | 0.577 | 0.637 | 0.651 | 0.593 | 0.604 | 1.03 | 0.751 | 0.865 | 0.805 | 0.446
3 | A-427 | 0.975 | 0.887 | – | 0.984 | 1.06 | 0.939 | 0.9 | – | 1.03 | 1.21 | 1.06 | 1.07 | – | 1.15 | 1.12 | 0.989 | 0.799 | 0.489 | 0.545 | 0.296
4 | NCI-H596 | 0.957 | 0.925 | 0.901 | 0.779 | 0.902 | 0.838 | 1.17 | 1.03 | 1.07 | 1.02 | 0.976 | 1.08 | 0.934 | 0.935 | 1.05 | 0.893 | 0.624 | 0.525 | 0.498 | 0.363
5 | RERF-LC-KJ | 1.03 | 0.937 | 0.707 | 0.691 | 0.51 | 1.24 | 1.11 | 0.994 | 0.958 | 0.974 | 0.886 | 0.935 | 0.929 | 0.813 | 0.84 | 0.948 | 1.09 | 0.968 | 0.966 | 0.717
6 | NCI-H647 | 0.767 | 0.983 | – | 0.919 | 0.935 | 1.28 | 0.793 | 0.712 | 0.709 | 0.958 | 0.933 | 0.922 | 0.896 | 1.2 | 1.1 | 1.01 | 1.07 | 0.834 | 0.55 | 0.267
7 | NCI-H1734 | 0.817 | 0.82 | – | 0.798 | 0.83 | 0.91 | 0.851 | – | 0.859 | 1.02 | 0.803 | 0.853 | – | 1.09 | 0.889 | 0.865 | 0.736 | – | 0.657 | 0.474
8 | SK-LU-1 | 0.482 | 0.812 | 0.802 | 1 | 1.23 | 0.806 | 0.892 | 0.908 | 0.858 | 1.39 | 0.838 | 0.894 | 1.15 | 1.09 | 1.14 | 0.971 | 0.929 | 0.65 | 0.337 | 0.296
9 | COR-L23 | 1.19 | 0.983 | 1.03 | 1 | 1.09 | 1.01 | 0.953 | 1.19 | 0.866 | 1.04 | 0.924 | 0.967 | 0.865 | 1.03 | 0.865 | 0.977 | 1.02 | 1.04 | 0.694 | 0.475
10 | EMC-BAC-2 | 0.924 | 1.12 | 1.25 | 1.13 | 1.35 | 0.901 | 1.05 | 1.01 | 1.05 | 1.14 | 0.787 | 0.826 | 0.806 | 0.852 | 0.867 | 1.07 | 0.956 | 1.06 | 0.891 | 0.817
11 | NCI-H1355 | 0.868 | 0.921 | 0.793 | 0.632 | 0.673 | 1.1 | 1.16 | 1.03 | 0.958 | 0.983 | 0.702 | 0.748 | 0.73 | 0.56 | 0.632 | 0.764 | 0.832 | 0.51 | 0.563 | 0.414
12 | NCI-H1792 | 0.343 | 0.642 | 0.529 | – | 0.496 | 0.784 | 0.977 | 0.835 | – | 0.889 | 0.37 | 0.495 | 0.391 | – | 0.486 | 0.646 | 0.596 | 0.417 | 0.392 | 0.332
13 | HOP-62 | 1.25 | 1.14 | 0.703 | 0.99 | 1 | 1.05 | 0.746 | 0.285 | 0.535 | 0.529 | 0.923 | 0.961 | 1.07 | 1.03 | 1.02 | 1.05 | 1.03 | 0.741 | 0.617 | 0.198
14 | NCI-H2009 | 1.11 | 1.12 | 1.2 | 1.24 | 1.24 | 1.01 | 0.963 | 0.963 | 1.07 | 1 | 1.24 | 1.11 | 1.23 | 1.23 | 1.25 | 0.986 | 0.527 | 0.537 | 0.531 | 0.403
